Reference: paper PMC12409578 (ACS Omega, 2025)
Entries after “also recorded” stand apart in the source; their conditions may differ.

How the values were obtained:
[1] = target: T1, AChE (from electric eel) (Electrophorus electricus, UniProt O42275); experiment: biochemical; format: biochemical; conditions: for Ki: Lineweaver–Burk plots, mean ± SEM, read-out: AChE K I; for IC50: electric eel AChE, ATChI substrate, 37 °C, pH 8.0; for selectivity for AChE than for BChE (in words): from K I values / selectivity index
T1 construct: AChE (from electric eel); from tissue

[2] = target: T2, BChE (from equine serum) (Equus caballus, UniProt P81908); experiment: biochemical; conditions: for Ki: Lineweaver–Burk plots, mean ± SEM, read-out: BChE K I; for IC50: equine serum BChE, BChI substrate, 37 °C, pH 8.0
T2 construct: BChE (from equine serum); from tissue; host or cells: equine serum

[3] = MTT cytotoxicity test on HUVEC cell line; format: cell-based; conditions: human, HUVEC cells (healthy cell line)
Method: Cell culture studies were conducted using the previously mentioned method , and HUVEC (healthy cell line) was grown for this study. After the cells were grown, the maximum dose accepted as 100 μM drug concentration was applied to the cell line for all compounds, and cell viability was determined. , The results were illustrated in Table .
The cytotoxic effect of all compounds by MTT analysis was performed to determine the proliferation on the HUVEC cell line. The MTT [3-(4,5-dimethyl-2-thiazol)-2,5-diphenyl-2H-tetrazolium bromide] cytotoxicity assay was employed according to previous studies with minor modifications. −

T1 sequence (O42275 24-633): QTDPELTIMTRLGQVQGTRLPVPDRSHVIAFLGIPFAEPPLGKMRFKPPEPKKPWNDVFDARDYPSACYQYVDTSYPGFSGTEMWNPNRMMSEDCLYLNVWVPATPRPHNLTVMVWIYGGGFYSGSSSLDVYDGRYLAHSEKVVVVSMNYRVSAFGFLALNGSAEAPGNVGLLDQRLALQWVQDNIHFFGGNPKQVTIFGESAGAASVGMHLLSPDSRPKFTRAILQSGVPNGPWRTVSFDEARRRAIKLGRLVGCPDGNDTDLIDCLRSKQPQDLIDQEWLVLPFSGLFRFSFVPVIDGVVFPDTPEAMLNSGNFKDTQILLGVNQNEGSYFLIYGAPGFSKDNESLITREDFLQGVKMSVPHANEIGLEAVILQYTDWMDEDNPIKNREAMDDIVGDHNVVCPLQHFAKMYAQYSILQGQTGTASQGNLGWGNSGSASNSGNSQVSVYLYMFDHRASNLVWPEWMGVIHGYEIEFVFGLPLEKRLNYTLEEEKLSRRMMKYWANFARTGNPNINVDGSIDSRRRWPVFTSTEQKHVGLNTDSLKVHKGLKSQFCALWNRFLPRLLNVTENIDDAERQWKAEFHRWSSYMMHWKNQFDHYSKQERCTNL
T2 sequence (P81908 whole entry): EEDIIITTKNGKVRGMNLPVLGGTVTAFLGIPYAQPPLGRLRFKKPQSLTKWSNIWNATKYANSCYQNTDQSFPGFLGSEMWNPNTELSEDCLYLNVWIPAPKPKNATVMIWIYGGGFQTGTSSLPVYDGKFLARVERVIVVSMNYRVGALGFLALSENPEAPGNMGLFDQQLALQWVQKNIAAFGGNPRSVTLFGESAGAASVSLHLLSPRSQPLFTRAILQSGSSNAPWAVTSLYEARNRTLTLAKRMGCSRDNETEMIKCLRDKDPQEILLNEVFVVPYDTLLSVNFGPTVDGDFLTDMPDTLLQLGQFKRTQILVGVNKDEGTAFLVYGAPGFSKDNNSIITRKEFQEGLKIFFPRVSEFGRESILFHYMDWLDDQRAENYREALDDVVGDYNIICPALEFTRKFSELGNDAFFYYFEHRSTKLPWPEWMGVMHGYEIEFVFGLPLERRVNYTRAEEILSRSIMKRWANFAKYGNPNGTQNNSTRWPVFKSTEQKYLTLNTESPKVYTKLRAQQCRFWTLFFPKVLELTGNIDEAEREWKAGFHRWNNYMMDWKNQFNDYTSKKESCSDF

| SMILES | SI (selectivity index) = K I (AChE)/ K I (BChE) [1] | Ki [1] [µM] | IC50 [1] [µM] | selectivity for AChE than for BChE (in words) [1] | Ki [2] [µM] | IC50 [2] [µM] | viability at 24 h, 100 µM [3] [%] |
| --- | --- | --- | --- | --- | --- | --- | --- |
| COc1ccc(C2=NN(c3nc(-c4ccc(F)cc4)cs3)C(c3ccc(C)s3)C2)cc1OC (stereo not drawn) [Compound 3e, 2-[3-(3,4-Dimethoxyphenyl)-5-(5-methylthiophen-2-yl)-4,5-dihydro-1H-pyrazol-1-yl]-4-(4-fluorophenyl)thiazole] | 0.082 | 0.143 ± 0.084 | 0.385 | more significant selectivity | 1.72 ± 0.15 | 3.32 | 118 |
| COc1ccc(C2=NN(c3nc(-c4cccc([N+](=O)[O-])c4)cs3)C(c3ccc(C)s3)C2)cc1OC (stereo not drawn) [Compound 3j, 2-[3-(3,4-Dimethoxyphenyl)-5-(5-methylthiophen-2-yl)-4,5-dihydro-1H-pyrazol-1-yl]-4-(3-nitrophenyl)thiazole] | 0.178 | 0.423 ± 0.023 | 4.03 | more significant selectivity | 2.37 ± 0.114 | 4.92 | 102 |
| COc1ccc(C2=NN(c3nc(-c4ccc(F)cc4F)cs3)C(c3ccc(C)s3)C2)cc1OC (stereo not drawn) [Compound 3i, 2-[3-(3,4-Dimethoxyphenyl)-5-(5-methylthiophen-2-yl)-4,5-dihydro-1H-pyrazol-1-yl]-4-(2,4-difluorophenyl)thiazole] | 0.332 | 0.529 ± 0.034 | 6.42 | – | 1.59 ± 0.078 | 7.37 | 86.4 |
| COc1ccc(C2=NN(c3nc(-c4ccc(C#N)cc4)cs3)C(c3ccc(C)s3)C2)cc1OC (stereo not drawn) [Compound 3g, 2-[3-(3,4-Dimethoxyphenyl)-5-(5-methylthiophen-2-yl)-4,5-dihydro-1H-pyrazol-1-yl]-4-(4-cyanophenyl)thiazole] | 0.057 | 0.045 ± 0.002 | 0.338 | highest selectivity for AChE; also recorded: more significant selectivity | 0.789 ± 0.056 | 2.09 | 94 |
| COc1ccc(C2=NN(c3nc(-c4ccc(C)cc4)cs3)C(c3ccc(C)s3)C2)cc1OC (stereo not drawn) [Compound 3b, 2-[3-(3,4-Dimethoxyphenyl)-5-(5-methylthiophen-2-yl)-4,5-dihydro-1H-pyrazol-1-yl]-4-(4-methylphenyl)thiazole] | 0.361 | 0.804 ± 0.062 | 4.01 | more significant selectivity | 2.22 ± 0.132 | 4.15 | 133 |
| COc1ccc(C2=NN(c3nc(-c4ccc(Cl)cc4Cl)cs3)C(c3ccc(C)s3)C2)cc1OC (stereo not drawn) [Compound 3h, 2-[3-(3,4-Dimethoxyphenyl)-5-(5-methylthiophen-2-yl)-4,5-dihydro-1H-pyrazol-1-yl]-4-(2,4-dichlorophenyl)thiazole] | 0.655 | 1.1 ± 0.058 | 5.46 | – | 1.69 ± 0.082 | 4.99 | 138 |
| COc1ccc(C2=NN(c3nc(-c4ccccc4)cs3)C(c3ccc(C)s3)C2)cc1OC (stereo not drawn) [Compound 3a, 2-[3-(3,4-Dimethoxyphenyl)-5-(5-methylthiophen-2-yl)-4,5-dihydro-1H-pyrazol-1-yl]-4-phenylthiazole] | 0.660 | 0.886 ± 0.054 | 2.85 | – | 1.35 ± 0.083 | 4.3 | 99.2 |
| COc1ccc(C2=NN(c3nc(-c4ccc([N+](=O)[O-])cc4)cs3)C(c3ccc(C)s3)C2)cc1OC (stereo not drawn) [Compound 3f, 2-[3-(3,4-Dimethoxyphenyl)-5-(5-methylthiophen-2-yl)-4,5-dihydro-1H-pyrazol-1-yl]-4-(4-nitrophenyl)thiazole] | 0.039 | 0.057 ± 0.003 | 0.382 | highest selectivity for AChE; also recorded: more significant selectivity | 1.46 ± 0.071 | 4.25 | 86 |
| COc1ccc(-c2csc(N3N=C(c4ccc(OC)c(OC)c4)CC3c3ccc(C)s3)n2)cc1 (stereo not drawn) [Compound 3c, 2-[3-(3,4-Dimethoxyphenyl)-5-(5-methylthiophen-2-yl)-4,5-dihydro-1H-pyrazol-1-yl]-4-(4-methoxyphenyl)thiazole] | 1.016 | 1.18 ± 0.083 | 4.81 | – | 1.16 ± 0.062 | 3.07 | 97.2 |
| COc1ccc(C2=NN(c3nc(-c4ccc(Cl)cc4)cs3)C(c3ccc(C)s3)C2)cc1OC (stereo not drawn) [Compound 3d, 2-[3-(3,4-Dimethoxyphenyl)-5-(5-methylthiophen-2-yl)-4,5-dihydro-1H-pyrazol-1-yl]-4-(4-chlorophenyl)thiazole] | 0.074 | 0.121 ± 0.007 | 0.523 | more significant selectivity | 1.64 ± 0.085 | 6.03 | 126 |
